Legend:
C57BL/6J mice = assay: Glucokinase activator in vivo screen protocol (blood glucose after oral dosing); conditions: oral gavage 50 mg/kg after two hour fast, blood glucose at 1, 2, 4 and 6 hours post dose, active = p≦0.05 decrease for two consecutive time points
Description: Glucokinase Activator in vivo Screen Protocol
C57BL/6J. mice are orally dosed via gavage with Glucokinase (GK) activator at 50 mg/kg body weight following a two hour fasting period. Blood glucose determinations are made five times during the six hour post-dose study period.
Mice (n=6) are weighed and fasted for a two hour period prior to oral treatment. GK activators are formulated at 6.76 mg/ml in Gelucire vehicle (Ethanol:Gelucire44/14:PEG400q.s. 4:66:30 v/w/v. Mice are dosed orally with 7.5 μl formulation per gram of body weight to equal a 50 mg/kg dose. Immediately prior to dosing, a pre dose (time zero) blood glucose reading is acquired by snipping off a small portion of the animals tail (˜1 mm) and collecting 15 μl blood into a heparinized capillary tube for analysis. Following GK activator administration, additional blood glucose readings are taken at 1, 2, 4 and 6 hours post dose from the same tail wound. Results are interpreted by comparing the mean blood glucose values of six vehicle treated mice with six GK activator treated mice over the six hour study duration.

Compound | melting point [°C] | glucokinase activator in vivo activity (decrease in blood glucose compared to vehicle) (C57BL/6J mice)
CC/C=C(/C(=O)Nc1nccs1)c1ccc(S(C)(=O)=O)cc1 [Example 1, (E)-2-(4-Methanesulfonyl-phenyl)-pent-2-enoic acid thiazol-2-ylamide] | 155 to 158 | –
CS(=O)(=O)c1ccc(/C(=C\C2CCCC2)C(=O)Nc2nccs2)cc1 [Example 3, (E)-3-Cyclopentyl-2-(4-methanesulfonyl-phenyl)-N-thiazol-2-yl-acrylamide] | 172 to 173 | excellent glucokinase activator in vivo activity
CS(=O)(=O)c1ccc(/C(=C\C2CCCCC2)C(=O)Nc2nccs2)cc1 [Example 4, (E)-3-Cyclohexyl-2-(4-methanesulfonyl-phenyl)-N-thiazol-2-yl-acrylamide] | – | excellent glucokinase activator in vivo activity
CS(=O)(=O)c1ccc(/C(=C\C2CCCCCC2)C(=O)Nc2nccs2)cc1 [Example 5, (E)-3-Cycloheptyl-2-(4-methanesulfonyl-phenyl)-N-thiazol-2-yl-acrylamide] | 163 to 165 | excellent glucokinase activator in vivo activity
CS(=O)(=O)c1ccc(/C(=C\C2CCCC2)C(=O)Nc2ncc(Br)s2)cc1 [Example 7, (E)-N-(5-Bromo-thiazol-2-yl)-3-cyclopentyl-2-(4-methanesulfonyl-phenyl)-acrylamide] | 202 to 205 | –
O=C(Nc1nccs1)/C(=C/C1CCCC1)c1ccc(Cl)c(Cl)c1 [Example 8, (E)-3-Cyclopentyl-2-(3,4-dichloro-phenyl)-N-thiazol-2-yl-acrylamide] | 57 to 59 | –
CS(=O)(=O)c1ccc(/C(=C\C2CCCC2)C(=O)Nc2nccs2)cc1Cl [Example 9, (E)-2-(3-Chloro-4-methanesulfonyl-phenyl)-3-cyclopentyl-N-thiazol-2-yl-acrylamide] | – | excellent glucokinase activator in vivo activity
CS(=O)(=O)c1ccc(/C(=C\C2CCCCC2)C(=O)Nc2nccs2)cc1C(F)(F)F [Example 12, (E)-3-Cyclohexyl-2-(4-methanesulfonyl-3-trifluoromethyl-phenyl)-N-thiazol-2-yl-acrylamide] | – | excellent glucokinase activator in vivo activity
CS(=O)(=O)c1ccc(/C(=C\C2CCCCC2)C(=O)Nc2nccs2)cc1[N+](=O)[O-] [Example 14, (E)-3-Cyclohexyl-2-(4-methanesulfonyl-3-nitro-phenyl)-N-thiazol-2-yl-acrylamide] | – | excellent glucokinase activator in vivo activity
CS(=O)(=O)c1ccc(/C(=C\C2CCCCCC2)C(=O)Nc2ncc(Br)s2)cc1 [Example 16, (E)-N-(5-Bromo-thiazol-2-yl)-3-cycloheptyl-2-(4-methanesulfonyl-phenyl)-acrylamide] | 159 to 163 | excellent glucokinase activator in vivo activity
CS(=O)(=O)c1ccc(/C(=C\C2CCCC2)C(=O)Nc2ccccn2)cc1Cl [Example 19, (E)-2-(3-Chloro-4-methanesulfonyl-phenyl)-3-cyclopentyl-N-pyridin-2-yl-acrylamide] | – | excellent glucokinase activator in vivo activity
CS(=O)(=O)c1ccc(/C(=C\C2CCCCC2)C(=O)Nc2ccc(Br)cn2)cc1C(F)(F)F [Example 20, (E)-N-(5-Bromo-pyridin-2-yl)-3-cyclohexyl-2-(4-methanesulfonyl-3-trifluoromethyl-phenyl)-acrylamide] | – | excellent glucokinase activator in vivo activity
CS(=O)(=O)c1ccc(/C(=C\CC2CCCC2)C(=O)Nc2nccs2)cc1 [Example 21, (E)-4-Cyclopentyl-2-(4-methanesulfonyl-phenyl)-but-2-enoic acid thiazol-2-ylamide] | 173 to 176 | excellent glucokinase activator in vivo activity
COC(=O)c1csc(NC(=O)/C(=C/CC2CCCC2)c2ccc(S(C)(=O)=O)cc2)n1 [Example 22, (E)-2-[4-Cyclopentyl-2-(4-methanesulfonyl-phenyl)-but-2-enoylamino]-thiazole-4-carboxylic acid methyl ester] | 85 to 90 | excellent glucokinase activator in vivo activity
CS(=O)(=O)c1ccc(/C(=C\CC2CCCC2)C(=O)Nc2nccs2)cc1C(F)(F)F [Example 25, (E)-4-Cyclopentyl-2-(4-methanesulfonyl-3-trifluoromethyl-phenyl)-but-2-enoic acid thiazol-2-ylamide] | – | excellent glucokinase activator in vivo activity
CNC(=O)NC(=O)/C(=C/C(C)C)c1ccc(Cl)c(Cl)c1 [Example 26, (E)-1-[2-(3,4-Dichloro-phenyl)-4-methyl-pent-2-enoyl]-3-methyl-urea] | 177 to 178 | –
CNC(=O)NC(=O)/C(=C/C1CCCCC1)c1ccc(S(C)(=O)=O)c(C(F)(F)F)c1 [Example 27, (E)-1-[3-Cyclohexyl-2-(4-methanesulfonyl-3-trifluoromethyl-phenyl)-acryloyl]-3-methyl-urea] | 199 to 202 | –
